Biological target: T1, Human HDAC10 (Homo sapiens, UniProt Q969S8)
T1 construct: Amino acids 1-631 with Nterminal GST tag, MW=96 kDa; GST (N); purchased BioMol SE-559; host or cells: Sf9 cells, baculovirus
T1 sequence (Q969S8 1-631): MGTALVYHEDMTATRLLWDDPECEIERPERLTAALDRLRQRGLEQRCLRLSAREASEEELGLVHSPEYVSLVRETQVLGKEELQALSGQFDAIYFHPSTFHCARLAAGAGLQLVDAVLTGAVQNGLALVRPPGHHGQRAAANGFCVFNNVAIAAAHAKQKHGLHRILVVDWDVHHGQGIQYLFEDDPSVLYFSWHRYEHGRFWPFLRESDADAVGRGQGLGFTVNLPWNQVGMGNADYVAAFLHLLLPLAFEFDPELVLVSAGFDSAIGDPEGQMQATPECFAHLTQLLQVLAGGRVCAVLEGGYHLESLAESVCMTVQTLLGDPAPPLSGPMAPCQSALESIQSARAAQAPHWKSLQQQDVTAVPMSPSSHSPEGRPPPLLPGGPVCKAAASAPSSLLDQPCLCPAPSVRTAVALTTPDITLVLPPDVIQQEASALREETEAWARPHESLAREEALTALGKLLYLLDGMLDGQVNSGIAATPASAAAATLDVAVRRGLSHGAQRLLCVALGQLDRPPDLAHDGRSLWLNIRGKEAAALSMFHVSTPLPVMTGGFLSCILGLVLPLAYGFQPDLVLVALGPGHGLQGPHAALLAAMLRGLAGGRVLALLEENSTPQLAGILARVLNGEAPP
Test: In vitro HDAC10 inhibition, fluorogenic peptide assay
Assay type: biochemical
Details: for IC50: read-out: IC50 (nM) of enzyme activity HDAC10
Experimental: All HDAC assays were performed using acetylated AMC-labeled peptide substrate: • Substrate for isoforms HDAC1, 2, 3, 4, 5, 6, 7, 9, 10, 11 and HeLa nuclear extract assays: Acetylated fluorogenic peptide from p53 residues 379-382 (RHKKAc) (BioMol. Cat. # KI-104). • Substrate for HDAC8 assays: Acetylated fluorogenic peptide from p53 residues 379-382 (RHKAcKAc) (BioMol. Cat. # KI-178).
Enzymes: • HDAC1 assay: 75 nM Human HDAC1 (GenBank Accession No. NM_004964): Full length with C-terminal GST tag, MW=79.9 kDa, expressed by baculovirus expression system in Sf9 cells (BioMol. Cat. # SE-456). • HDAC2 assay: 5 nM Human HDAC2 (GenBank Accession No. Q92769): Full length with C-terminal His tag, MW=60 kDa, expressed by baculovirus expression system in Sf9 cells (BioMol. Cat. # SE-500). • HDAC3 assay: 2.3 nM Human HDAC3/NcoR2 (GenBank Accession No. NM_003883 for HDAC3, GenBank Accession No.NM_006312 for NcoR2): Complex of human HDAC3, full length with C-terminal His tag, MW=49.7 kDa, and human NCOR2, N-terminal GST tag, MW=39 kDa, co-expressed in baculovirus expression system (BioMol. Cat. # SE-507). • HDAC4 assay: 266 nM Human HDAC4 (GenBank Accession No. NM_006037): Amino acids 627-1085 with N-terminal GST tag, MW=75.2 kDa, expressed in baculovirus expression system (BioMol, Hamburg, Germany). • HDAC5 assay: 588 nM Human HDAC5 (GenBank Accession No. NM_001015053): Full length with Nterminal GST tag, MW=150 kDa, expressed by baculovirus expression system in Sf9 cells (BioMol, Hamburg, Germany). • HDAC6 assay: 13 nM Human HDAC6 (GenBank Accession No. BC069243): Full length with N-terminal GST tag, MW=159 kDa, expressed by baculovirus expression system in Sf9 cells (BioMol. Cat. # SE-508). • HDAC7 assay: 962 nM Human HDAC7 (GenBank Accession No. AY302468): Amino acids 518-end with N-terminal GST tag, MW=78 kDa, expressed in baculovirus expression system (BioMol, Hamburg, Germany). • HDAC8 assay: 119 nM Human HDAC8 (GenBank Accession No. NM018486): Full length, MW=42 kDa, expressed in an E. coli expression system (BioMol. […]
The reactions were carried out in a 96-well microplate for fluorometry in a 50 μl reaction volume. […] The reaction was allowed to develop for 45 minutes at 30° C. with 5% CO2; then the fluorescent signal was measured with an excitation wavelength at 360 nm and an emission wavelength at 460 nm in a microplate-reading fluorometer (GeminiXS; Molecular Devices, Sunnyvale, Calif.). […] IC50 was calculated by fitting the experimental data to a dose-response curve. […]

| IC50 [nM] | Selectivity against HDAC6 (IC50 HDACx/IC50 HDAC6) HDAC10 (IC50 HDAC10/IC50 HDAC6) | Compound |
| --- | --- | --- |
| 14 | – | O=C(CCCCCNC(=O)c1[nH]c(-c2ccc(O)cc2)cc1-c1ccoc1)NO [Example 5, 3-(3-furyl)-N-(5-(hydroxycarbamoyl)pentyl)-5-(4-hydroxy-phenyl)-1H-pyrrole-2-carboxamide] |
| 346 | 17.3 | COc1ccc(-c2cc(-c3ccccc3)[nH]c2C(=O)NCCCCCC(=O)NO)cc1 [Compound A, N-[6-(hydroxyamino)-6-oxohexyl]-3-(4-methoxyphenyl)-5-phenyl-1H-pyrrole-2-carboxamide, reference compound] |
| 47 | – | O=C(CCCCCNC(=O)c1[nH]c(-c2ccc(O)cc2)cc1-c1ccsc1)NO [Example 6, N-(5-(hydroxycarbamoyl)pentyl)-5-(4-hydroxyphenyl)-3-(3-thienyl)-1H-pyrrole-2-carboxamide] |
